Measurements published in patent US20260355196A1, “INHIBITORS AND DEGRADERS OF PIP4K PROTEIN” (Larkspur Biosciences, Inc., priority 2023, published 2026).

Each compound was assayed against T1, PIP4K2C (Homo sapiens, UniProt Q8TBX8) (assay: HiBiT PIP4K2C degradation assay in MOLT-4 cells (endogenous PIP4K2C C-terminally tagged with HiBiT)). Conditions: 6 hours of incubation time, rather than 24 hours; MOLT-4, top concentration 10 micromolar; read-out: HiBIT-degradation MOLT4 PIP4k2C DC50 (6 hours, marked *).
T1 sequence (Q8TBX8 1-421): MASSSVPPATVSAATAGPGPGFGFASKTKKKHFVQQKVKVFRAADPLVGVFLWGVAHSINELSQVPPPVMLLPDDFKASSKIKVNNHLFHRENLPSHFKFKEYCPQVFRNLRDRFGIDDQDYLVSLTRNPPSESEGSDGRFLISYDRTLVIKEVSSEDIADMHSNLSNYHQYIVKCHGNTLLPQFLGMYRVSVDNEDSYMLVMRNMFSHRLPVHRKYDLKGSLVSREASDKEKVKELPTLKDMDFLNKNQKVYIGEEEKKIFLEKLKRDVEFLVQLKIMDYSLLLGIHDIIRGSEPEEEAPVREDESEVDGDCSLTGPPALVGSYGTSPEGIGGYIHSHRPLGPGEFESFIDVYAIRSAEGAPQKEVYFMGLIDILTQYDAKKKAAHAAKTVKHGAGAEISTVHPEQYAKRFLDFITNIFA
Format: cell-based
Set-up: untagged in primary human PBMCs and monocyte-derived dendritic cells
Outline: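 In a CRISPR-engineered MOLT-4 clone carrying HiBiT-tagged PIP4K2C, degradation was assessed after 24 or 6 hours of dosing (10 micromolar top, 3-fold steps). Luminescence from lytic HiBiT detection was fitted to obtain DC50.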

DC50, < 500 nM:
Cn1nc(C2CCC(=O)NC2=O)c2ccc(N3CCN([C@H]4CC[C@H](C(=O)N[C@H]5CC[C@H](Nc6ncc(F)c(-c7cccc(-n8ccccc8=O)c7)n6)CC5)CC4)CC3)cc21 (stereo partly drawn) [Compound 388, trans-4-(4-(3-(2,6-dioxopiperidin-3-yl)-1-methyl-1H-indazol-6-yl)piperazin-1-yl)-N-(trans-4-((5-fluoro-4-(3-(2-oxopyridin-1(2H)-yl)phenyl)pyrimidin-2-yl)amino)cyclohexyl)cyclohexane-1-carboxamide]
Cn1nc(C2CCC(=O)NC2=O)c2ccc(N3CCN([C@H]4CC[C@H](C(=O)N[C@H]5CC[C@H](Nc6ncc(F)c(-c7cccc(-c8ccc[nH]c8=O)c7)n6)CC5)CC4)CC3)cc21 (stereo partly drawn) [Compound 389, trans-(1r,4R)-4-(4-(3-(2,6-dioxopiperidin-3-yl)-1-methyl-1H-indazol-6-yl)piperazin-1-yl)-N-((1r,4R)-4-((5-fluoro-4-(3-(2-oxo-1,2-dihydropyridin-3-yl)phenyl)pyrimidin-2-yl)amino)cyclohexyl)cyclohexane-1-carboxamide]
O=C1CCC(Nc2ccc(C3CCN(CC4CCN(C(=O)[C@H]5CC[C@H](Nc6ncc(F)c(-c7cccc(-n8ccccc8=O)c7)n6)CC5)CC4)CC3(F)F)c(F)c2)C(=O)N1 (stereo partly drawn) [Compound 390, trans-3-[4-[3,3-difluoro-1-[[1-[4-[[5-fluoro-4-[3-(2-oxo-1-pyridyl)phenyl]pyrimidin-2-yl]amino]cyclohexanecarbonyl]-4-piperidyl]methyl]-4-piperidyl]-3-fluoro-anilino]piperidine-2,6-dione]
Cn1nc(C2CCC(=O)NC2=O)c2ccc(C3CCN(CC4CCN(C(=O)[C@H]5CC[C@H](Nc6ncc(F)c(-c7cccc(-c8ccc[nH]c8=O)c7)n6)CC5)CC4)CC3)cc21 (stereo partly drawn) [Compound 391, trans-3-(6-(1-((1-(4-((5-fluoro-4-(3-(2-oxo-1,2-dihydropyridin-3-yl)phenyl)pyrimidin-2-yl)amino)cyclohexane-1-carbonyl)piperidin-4-yl)methyl)piperidin-4-yl)-1-methyl-1H-indazol-3-yl)piperidine-2,6-dione]
O=C1CCC(Nc2ccc(N3CCN(CC4(O)CCN(C(=O)[C@H]5CC[C@H](Nc6ncc(F)c(-c7cccc(-n8ccccc8=O)c7)n6)CC5)CC4)CC3)c(F)c2)C(=O)N1 (stereo partly drawn) [Compound 392, trans-3-((3-fluoro-4-(4-((1-(4-((5-fluoro-4-(3-(2-oxopyridin-1(2H)-yl)phenyl)pyrimidin-2-yl)amino)cyclohexane-1-carbonyl)-4-hydroxypiperidin-4-yl)methyl)piperazin-1-yl)phenyl)amino)piperidine-2,6-dione]
O=C1CCC(Nc2ccc(N3CCN(CC4CCN(C(=O)[C@H]5CC[C@H](Nc6ncc(F)c(-c7cccc(N8CCCCC8=O)c7)n6)CC5)CC4)CC3)c(F)c2)C(=O)N1 (stereo partly drawn) [Compound 393, trans-3-[3-fluoro-4-[4-[[1-[4-[[5-fluoro-4-[3-(2-oxo-1-piperidyl)phenyl]pyrimidin-2-yl]amino]cyclohexanecarbonyl]-4-piperidyl]methyl]piperazin-1-yl]anilino]piperidine-2,6-dione]
O=C1CCC(Nc2ccc(C3CCN(CC4CCN(C(=O)[C@H]5CC[C@H](Nc6ncc(F)c(-c7cccc(N8CCCCC8=O)c7)n6)CC5)CC4)CC3)c(F)c2)C(=O)N1 (stereo partly drawn) [Compound 394, trans-3-((3-fluoro-4-(1-((1-(4-((5-fluoro-4-(3-(2-oxopiperidin-1-yl)phenyl)pyrimidin-2-yl)amino)cyclohexane-1-carbonyl)piperidin-4-yl)methyl)piperidin-4-yl)phenyl)amino)piperidine-2,6-dione]
O=C1CCC(Nc2ccc(N3CCC(N4CCC(CC(=O)N[C@H]5CC[C@H](Nc6ncc(F)c(-c7cccc(-n8ccccc8=O)c7)n6)CC5)CC4)CC3)c(F)c2)C(=O)N1 (stereo partly drawn) [Compound 395, trans-2-(1′-(4-((2,6-dioxopiperidin-3-yl)amino)-2-fluorophenyl)-[1,4′-bipiperidin]-4-yl)-N-((1r,4r)-4-((5-fluoro-4-(3-(2-oxopyridin-1(2H)-yl)phenyl)pyrimidin-2-yl)amino)cyclohexyl)acetamide]
O=C1CCC(Nc2ccc(C3CCN([C@H]4CC[C@H](C(=O)N[C@H]5CC[C@H](Nc6ncc(F)c(-c7cccc(-c8ccc[nH]c8=O)c7)n6)CC5)CC4)CC3)c(F)c2)C(=O)N1 (stereo partly drawn) [Compound 396, trans-4-(4-(4-((2,6-dioxopiperidin-3-yl)amino)-2-fluorophenyl)piperidin-1-yl)-N-(trans-4-((5-fluoro-4-(3-(2-oxo-1,2-dihydropyridin-3-yl)phenyl)pyrimidin-2-yl)amino)cyclohexyl)cyclohexane-1-carboxamide]
O=C1CCC(n2c(=O)oc3cc(N4CCN(CC5CCN(C(=O)[C@H]6CC[C@H](Nc7ncc(F)c(-c8cccc(-n9ccccc9=O)c8)n7)CC6)CC5)CC4)ccc32)C(=O)N1 (stereo partly drawn) [Compound 397, trans-3-(6-(4-((1-(4-((5-fluoro-4-(3-(2-oxopyridin-1(2H)-yl)phenyl)pyrimidin-2-yl)amino)cyclohexane-1-carbonyl)piperidin-4-yl)methyl)piperazin-1-yl)-2-oxobenzo[d]oxazol-3 (2H)-yl)piperidine-2,6-dione]
O=C1CCC(n2c(=O)oc3cc(N4CCN(CC5CCN(C(=O)[C@H]6CC[C@H](Nc7ncc(F)c(-c8cccc(-c9ccc[nH]c9=O)c8)n7)CC6)CC5)CC4)ccc32)C(=O)N1 (stereo partly drawn) [Compound 398, trans-3-(6-(4-((1-(4-((5-fluoro-4-(3-(2-oxo-1,2-dihydropyridin-3-yl)phenyl)pyrimidin-2-yl)amino)cyclohexane-1-carbonyl)piperidin-4-yl)methyl)piperazin-1-yl)-2-oxobenzo[d]oxazol-3 (2H)-yl)piperidine-2,6-dione]
Cn1nc(C2CCC(=O)NC2=O)c2ccc(N3CCN(CC4CCN(C(=O)[C@H]5CC[C@H](Nc6ncc(F)c(-c7cccc(-n8ccccc8=O)c7)n6)CC5)CC4)CC3)cc21 (stereo partly drawn) [Compound 399, 3-(6-(4-((1-(trans-4-((5-fluoro-4-(3-(2-oxopyridin-1(2H)-yl)phenyl)pyrimidin-2-yl)amino)cyclohexane-1-carbonyl)piperidin-4-yl)methyl)piperazin-1-yl)-1-methyl-1H-indazol-3-yl)piperidine-2,6-dione]
O=C1CCC(Nc2ccc(N3CCC(CC4CCN(C(=O)[C@H]5CC[C@H](Nc6ncc(F)c(-c7cccc(-n8ccccc8=O)c7)n6)CC5)CC4)CC3)c(F)c2)C(=O)N1 (stereo partly drawn) [Compound 400, trans-3-((3-fluoro-4-(4-((1-(4-((5-fluoro-4-(3-(2-oxopyridin-1(2H)-yl)phenyl)pyrimidin-2-yl)amino)cyclohexane-1-carbonyl)piperidin-4-yl)methyl)piperidin-1-yl)phenyl)amino)piperidine-2,6-dione]
O=C1CCC(Nc2ccc(C3CCN([C@H]4CC[C@H](NC(=O)[C@H]5CC[C@H](Nc6ncc(F)c(-c7cccc(-n8ccccc8=O)c7)n6)CC5)CC4)CC3)c(F)c2)C(=O)N1 (stereo partly drawn) [Compound 401, trans-(1r,4R)—N-((1r,4R)-4-(4-(4-((2,6-dioxopiperidin-3-yl)amino)-2-fluorophenyl)piperidin-1-yl)cyclohexyl)-4-((5-fluoro-4-(3-(2-oxopyridin-1(2H)-yl)phenyl)pyrimidin-2-yl)amino)cyclohexane-1-carboxamide]
